Results published in publication PMC10053369, “Recombinant Analogs of Sea Anemone Kunitz-Type Peptides Influence P2X7 Receptor Activity in Neuro-2a Cells” (Marine Drugs, 2023).

Key:
[1] = intrathecal; hind paw ipsilateral to the nerve injury; cited from earlier work
From the text: (§1) Activated P2X7 has also been reported to alter reactive oxygen species (ROS) in microglia/macrophages as was shown, for example, in primary rat microglial cells. In cultured neurons of the dorsal horn of the spinal ...

[2] = tested on: cultured neurons of the dorsal horn of the spinal cord; settings: cited from earlier work
From the text: as §1

Neuro-2a cells = test: Cytoprotection against ATP-induced cell death (MTT assay); format: cell-based, mouse
Description: (§2) Neuro-2a neuroblastoma cells (ATCC® CCL-131™) were obtained from American Type Culture Collection (Manassas, VA, USA). The cells were cultivated in DMEM medium (BioloT, St. Petersburg, Russia) supplemented with 10% of fetal bovine serum (BioloT, St. Petersburg, Russia) and 1% penicillin/streptomycin (BioloT, St. Petersburg, Russia) at 37 °C and 5% CO2. Initially, cells were incubated in cultural flasks until sub-confluent (~80%). For testing, Neuro-2a cells were seeded in 96-well plates and experiments were started after 24 h.
The cytoprotective effect of peptides was assessed in Neuro-2a cells using the MTT assay. In brief, an aliquot (180μL) of cell suspension with a nominal cell density of 3 × 10^4 cells/well was dispensed into 96-well plates. The cells were incubated for 24 h in a humidified atmosphere containing 5% CO2 to allow cell attachment. At the end of the preincubation period, ATP (Sigma-Aldrich, St. Louis, MO, USA) was added to the cells at a concentration of 4 mM. Studied peptides were added to the cells at concentrations of 0.1, 1.0 or 10.0 μM for 1h prior to the addition of ATP. After incubation for 48 h at 37 °C cell viability was detected using the MTT as described previously. The standard P2X7 inhibitor, A438079 (Sigma-Aldrich, St. Louis, MO, USA), at a concentration of 10 μM was used as a positive control.
(§3) All data were obtained in three independent replicates and calculated values were expressed as mean ± standard error of the mean (SEM). The Student’s t-test was performed using SigmaPlot 14.0 (Systat Software Inc., San Jose, CA, USA) to determine statistical significance.

[3] = tested on: pancreatic ductal adenocarcinoma cells; settings: ref [31]; cited from earlier work
P2X7 in Neuro-2a cells [4] = test: ATP-induced YO-PRO-1 uptake (P2X7 pore formation); format: cell-based, mouse
Description: as §2
Neuro-2a cells were seeded in 96 well plates at a density of 4 × 10^4 cells/well and incubated in DMEM for 24 h, 37 °C, 5% CO2. Then the cells were washed once with HBSS and filled with 180 μL of the same buffer. YO-PRO-1 (Sigma-Aldrich, St. Louis, MO, USA, 5 μM final concentration) was loaded into the wells, the cells were incubated for 15 min at 37 °C. Further, the studied peptides were added to the cells at concentrations of 10, 1, 0.1 and 0.01 μM and incubated for 10 min at 37 °C. After that ATP (4 mM final concentration) was added and the plates were incubated for an additional 10 min. The standard P2X7R inhibitor, A438079 (Sigma-Aldrich, St. Louis, MO, USA), was used as inhibitory control. Then the cells were washed three times with the buffer solution and fluorescence intensity was measured with PHERAstar FS plate reader (BMG, LABTECH, Ortenberg, Germany) at λex = 485 nm and λem= 520 nm in the “End Point” mode. The effectiveness of compounds was evaluated relative to control without ATP.
as §3

TRPV1 receptor = settings: modulator of TRPV1, depends on nature and strength of activation stimuli; ref [14],[17],[18],[21],[38],[39],[40]; cited from earlier work
From the text: (§4) The studied peptides are analogs of sea anemone Kunitz-type peptides and attract our attention due to their wide spectrum of biological activity and ability to interact with important molecular targets.

[5] = ref [14],[17],[18],[21],[38],[39],[40], cited from earlier work
From the text: as §4

P2X7 in Neuro-2a cells [6] = test: ATP-induced Ca2+ influx (Fluo-8 AM); format: cell-based, mouse; settings: for reduction of calcium level: 30 min pre-incubation, 1 mM ATP
Description: as §2
Neuro-2a cells were seeded in 96-well plates at a density of 4 × 10^4 cells/well and incubated in DMEM for 24 h at 37 °C, 5% CO2. Then the cells were washed twice with culture medium and loaded with 5 μM Fluo-8 AM (Abcam, Cambridge, UK) dye and 1 μM Pluronic® F-127 (Sigma-Aldrich, St. Louis, MO, USA), and incubated for 40 min at 37 °C in HBSS: 140 mM NaCl, 5 mM KCl, 0.8 mM MgCl2, 2 mM CaCl2, 10 mM glucose, 10 mM HEPES, pH 7.4. Then the cells were washed two times with the same solution but without the fluorescent dye and treated with the studied peptides for 30 min at RT in the dark. In some experiments Ca^2+-free medium was used: 140 mM NaCl, 5 mM KCl, 0.8 mM MgCl2, 10 mM glucose, 10 mM HEPES, 5 mM EGTA, pH 7.4. ATP (1 mM final concentration) was added using a microinjector (20 μL/well) 10 s later the baseline recording and the readings were taken up to 50 s in 1 s intervals. The standard P2X7 inhibitor, A438079 (Sigma-Aldrich, St. Louis, MO, USA), was used as inhibitory control. Ionomycin (Sigma-Aldrich, St. Louis, MO, USA) and BHQ were used to generate a generic calcium signal in cells. 2,5,-di(t-butyl) hydroquinone (BHQ) was synthesized and kindly provided by Dr. Polonik S.N. (PIBOC FEBRAS). Fluo-8 was excited at 485 nm, and the emission at 520 nm was measured with a PHERAstar®FS plate reader (BMG LABTECH, Ortenberg, Germany). The data were processed by MARS Data Analysis v. 3.01R2 (BMG Labtech, Ortenberg, Germany). Mean values and standard error of peak height calcium were calculated.
as §3

[7] = tested on: spontaneously hypertensive rats; settings: intracerebroventricular; ref [8]; cited from earlier work
From the text: as §1

In the case of Clc1cccc(-c2nnnn2Cc2cccnc2)c1Cl [A438079, reference compound], the “mechanical hypersensitivity” value [1] is given as “suppressed the development of mechanical hypersensitivity”, the “ATP or Bz-ATP-induced ROS production” value [2] is given as “eliminated” and the “increase in cell viability compared with ATP alone” value (Neuro-2a cells; pre-incubation with 10 μM A438079, then 4 mM ATP, 48 h, mean ± SE, n = 3) is given as 18.2 ± 2.8%. The “ATP-induced pore formation and cell death” value [3] was “very modest effects on ATP-induced pore formation and cell death”, the “inhibition of YO-PRO-1 dye penetration vs ATP alone” value (P2X7 in Neuro-2a cells [4]; 10 μM A438079 pre-incubation, 4 mM ATP, mean ± SE, n = 3) was “up to 32%” and the “ATP-induced uptake of YO-PRO-1” value (P2X7 in Neuro-2a cells [4]; 0.01–10 μM peptides or 10 μM A438079, 10 min pre-incubation, 4 mM ATP) was “attenuated dye accumulation”.

In the case of “APHC3: recombinant Kunitz-type peptide from H. magnifica (=H. crispa), UniProtKB C0HJF3 (GSICLEPKVVGPCTAYFPRFYFNSETGKCTPFIYGGCEGNGNNFETLRACRGICRA; left off: thioredoxin, end not stated, cleaved)”, the EC50 (TRPV1 receptor) is listed as ~18 nM, the “activity in models of inflammatory diseases” value ([5]; ex vivo and in vivo) is listed as “potent activity” and the “anti-inflammatory and analgesic activity” value [5] is listed as “significant anti-inflammatory and analgesic activity”. The “reduction of calcium level” value (P2X7 in Neuro-2a cells [6]; 0.1 μM peptide, mean ± SE, n = 3) was 53.2 ± 24.95%, the “reduction of calcium level” value (P2X7 in Neuro-2a cells [6]; 0.1–10 μM peptide) was “significantly reduced the calcium level” and the “effect on Ca2+ influx (summary in discussion)” value (P2X7 in Neuro-2a cells [6]; short-term effect) was “a significant effect on Ca^2+ influx into cells”. For the same compound, the “protection from ATP-induced death” value (Neuro-2a cells; long-time application of ATP (4 mM, 48 h)) was “partially protected neuroblastoma cells from ATP-induced death” and the “entry of YO-PRO-1 into cells (summary in discussion)” value (P2X7 in Neuro-2a cells [4]; short-term effect) was “regulating the entry of low molecular weight fluorescent dye YO-PRO-1 into cells”.

For Cc1nc(N=Nc2ccc(S(=O)(=O)O)cc2S(=O)(=O)O)c(COP(=O)(O)O)c(C=O)c1O [PPADS], the “infarct volume and number of irreversibly damaged cells” value [7] is listed as “reduced infarct volume and the number of irreversibly damaged cells”.
